Test results from patent US12410160B2 (Gilead Sciences, Inc., priority 2021, dated 2025).

How the values were obtained:
human KHK-C = human KHK-C (Homo sapiens (Human), UniProt P50053); test: KHK Biochemical Assay (IC50), ADP-Glo, KHK-C; settings: ADP-Glo; average of at least two separate assays
How it was run: (§1)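 Luminescent ADP-Glo read-out of ADP made by His-tagged KHK (BL21 (DE3) expression, Ni-NTA). Enzyme and compound sat together 30 min before ATP/fructose addition, then reacted 4 h at RT in Hepes pH 7.4 buffer with KCl, MgCl2, Triton-X. Quench 1 h, detection 1 h.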

human KHK-A = human KHK-A (Homo sapiens (Human), UniProt P50053); test: KHK Biochemical Assay (IC50), ADP-Glo, KHK-A; settings: ADP-Glo; average of at least two separate assays
How it was run: as §1

[1] = biological target: KHK-C expressed in NRK-52E cells (Homo sapiens (Human), UniProt P50053); test: KHK-C Cell-based Assay (EC50), NRK CTG, fructose-mediated ATP-depletion
KHK-C expressed in NRK-52E cells, sequence (P50053 whole entry): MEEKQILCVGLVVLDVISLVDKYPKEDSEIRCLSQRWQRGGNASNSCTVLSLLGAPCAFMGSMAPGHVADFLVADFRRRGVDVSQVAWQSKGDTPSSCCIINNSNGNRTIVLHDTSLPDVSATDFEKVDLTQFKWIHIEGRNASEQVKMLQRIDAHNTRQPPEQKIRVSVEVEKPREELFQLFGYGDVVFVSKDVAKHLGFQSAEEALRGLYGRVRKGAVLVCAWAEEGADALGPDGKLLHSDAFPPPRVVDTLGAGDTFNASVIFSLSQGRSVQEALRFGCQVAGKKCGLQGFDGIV

human KHK-C, sequence (P50053 whole entry): as above
human KHK-A, sequence (P50053 other isoform, or with tags, fused parts or gaps): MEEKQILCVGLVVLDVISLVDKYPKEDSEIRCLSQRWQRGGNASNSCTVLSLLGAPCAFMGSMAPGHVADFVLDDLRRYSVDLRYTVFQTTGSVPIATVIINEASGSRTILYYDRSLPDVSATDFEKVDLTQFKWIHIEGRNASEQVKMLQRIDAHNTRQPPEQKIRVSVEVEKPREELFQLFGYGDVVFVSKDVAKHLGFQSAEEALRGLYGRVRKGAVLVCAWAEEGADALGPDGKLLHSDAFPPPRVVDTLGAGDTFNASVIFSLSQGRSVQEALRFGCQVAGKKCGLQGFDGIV

| SMILES | IC50 (human KHK-C) | IC50 (human KHK-A) | EC50 [1] |
| --- | --- | --- | --- |
| NC(=O)c1ccc(-c2nc(N3CCCC3)nc3c2CCC3)cc1 [Example 142, 4-(2-(pyrrolidin-1-yl)-6,7-dihydro-5H-cyclopenta[d]pyrimidin-4-yl)benzamide] | 2.43 µM | 2.11 µM | 2.04 µM |
| C[C@H]1CCN1c1nc2c(c(-c3ccc4nc(N)ccc4c3)n1)CCC2 [Example 143, (S)-6-(2-(2-methylazetidin-1-yl)-6,7-dihydro-5H-cyclopenta[d]pyrimidin-4-yl)quinolin-2-amine] | 0.0306 µM | 0.0214 µM | 0.0433 µM |
| C[C@H]1CCN1c1nc2c(c(-c3ccc(C(N)=O)c4ccccc34)n1)CCC2 [Example 144, (S)-4-(2-(2-methylazetidin-1-yl)-6,7-dihydro-5H-cyclopenta[d]pyrimidin-4-yl)-1-naphthamide] | 2.4 µM | 1.69 µM | 2.44 µM |
| C[C@H]1CCN1c1nc2c(c(-c3ccc4c(c3)C3(CCC4)CC3C(=O)O)n1)CCC2 (stereo partly drawn) [Example 148, 7′-(2-((S)-2-methylazetidin-1-yl)-6,7-dihydro-5H-cyclopenta[d]pyrimidin-4-yl)-3′,4′-dihydro-2′H-spiro[cyclopropane-1,1′-naphthalene]-2-carboxylic acid] | 0.0599 µM | 0.084 µM | 0.653 µM |
| C[C@H]1CCN1c1nc2c(c(-c3ccc4c(c3)OCCNC4=O)n1)CCC2 [Example 149, (S)-8-(2-(2-methylazetidin-1-yl)-6,7-dihydro-5H-cyclopenta[d]pyrimidin-4-yl)-3,4-dihydrobenzo[f][1,4]oxazepin-5(2H)-one] | 0.0067 µM | 0.0332 µM | 0.0188 µM |
| C[C@H]1CCN1c1nc2c(c(-c3ccc4c(c3)C(=O)NCCO4)n1)CCC2 [Example 150, (S)-7-(2-(2-methylazetidin-1-yl)-6,7-dihydro-5H-cyclopenta[d]pyrimidin-4-yl)-3,4-dihydrobenzo[f][1,4]oxazepin-5(2H)-one] | 0.0331 µM | 0.0322 µM | 0.0732 µM |
| C[C@H]1CCN1c1nc2c(c(-c3cc4ccccc4[nH]3)n1)CCC2 [Example 151, (S)-4-(1H-indol-2-yl)-2-(2-methylazetidin-1-yl)-6,7-dihydro-5H-cyclopenta[d]pyrimidine] | 3.89 µM | 4.98 µM | 1.36 µM |
| C[C@H]1CCN1c1nc2c(c(-c3cc4c(C(=O)O)cccc4[nH]3)n1)CCC2 [Example 155, (S)-2-(2-(2-methylazetidin-1-yl)-6,7-dihydro-5H-cyclopenta[d]pyrimidin-4-yl)-1H-indole-4-carboxylic acid] | 0.0995 µM | 0.232 µM | 4.79 µM |
| C[C@H]1CCN1c1nc2c(c(-c3cc4c(C(N)=O)cccc4[nH]3)n1)CCC2 [Example 156, (S)-2-(2-(2-methylazetidin-1-yl)-6,7-dihydro-5H-cyclopenta[d]pyrimidin-4-yl)-1H-indole-4-carboxamide] | 0.082 µM | 0.0999 µM | 0.145 µM |
| C[C@H]1CCN1c1nc2c(c(-c3ccc4nc(O)ccc4c3)n1)CCC2 [Example 175, (S)-6-(2-(2-methylazetidin-1-yl)-6,7-dihydro-5H-cyclopenta[d]pyrimidin-4-yl)quinolin-2-ol] | 0.0498 µM | 0.0665 µM | 0.249 µM |
| C[C@H]1CCN1c1nc2c(c(-c3ccc4[nH]c(C(N)=O)cc4c3)n1)CCC2 [Example 184, 5-[2-[(2S)-2-methylazetidin-1-yl]-6,7-dihydro-5H-cyclopenta[d]pyrimidin-4-yl]-1H-indole-2-carboxamide] | 0.21 µM | 0.152 µM | 0.275 µM |
| C[C@H]1CCN1c1nc2c(c(-c3ccc(-c4ncc[nH]4)cc3)n1)CCC2 [Example 185, 4-[4-(1H-imidazol-2-yl)phenyl]-2-[(2S)-2-methylazetidin-1-yl]-6,7-dihydro-5H-cyclopenta[d]pyrimidine] | 0.0488 µM | 0.0606 µM | 0.0839 µM |
| C[C@H]1CCN1c1nc2c(c(-c3ccc4c(c3)CN(C)C4=O)n1)CCC2 [Example 186, 2-methyl-5-[2-[(2S)-2-methylazetidin-1-yl]-6,7-dihydro-5H-cyclopenta[d]pyrimidin-4-yl]isoindolin-1-one] | 0.0669 µM | 0.0782 µM | 0.143 µM |
| C[C@H]1[C@H](O)CN1c1nc2c(c(-c3ccc(-c4ncc[nH]4)cc3)n1)CCC2 [Example 193, (2S,3R)-1-[4-[4-(1H-imidazol-2-yl)phenyl]-6,7-dihydro-5H-cyclopenta[d]pyrimidin-2-yl]-2-methyl-azetidin-3-ol] | 0.0978 µM | 0.0734 µM | 0.412 µM |
| C[C@H]1[C@H](O)CN1c1nc2c(c(-c3ccc4c(c3)CNC4=O)n1)CCC2 [Example 196, 5-[2-[(2S,3R)-3-hydroxy-2-methyl-azetidin-1-yl]-6,7-dihydro-5H-cyclopenta[d]pyrimidin-4-yl]isoindolin-1-one] | 0.0867 µM | 0.136 µM | 0.367 µM |
| C[C@H]1[C@H](F)CN1c1nc2c(c(-c3ccc(C(N)=O)cc3)n1)CCC2 [Example 200, 4-[2-[(2S,3R)-3-fluoro-2-methyl-azetidin-1-yl]-6,7-dihydro-5H-cyclopenta[d]pyrimidin-4-yl]benzamide] | 0.0109 µM | 0.0149 µM | 0.0493 µM |
| C[C@H]1[C@H](O)CN1c1nc2c(c(-c3ccc(CN)cc3)n1)CCC2 [Example 202, (2S,3R)-1-[4-[4-(aminomethyl)phenyl]-6,7-dihydro-5H-cyclopenta[d]pyrimidin-2-yl]-2-methyl-azetidin-3-ol] | 0.0077 µM | 0.0098 µM | 0.111 µM |
| C[C@H]1C[C@H](C)N1c1nc2c(c(-c3cccc(S(N)(=O)=O)c3)n1)CCC2 [Example 208, 3-[2-[(28,48)-2,4-dimethylazetidin-1-yl]-6,7-dihydro-5H-cyclopenta[d]pyrimidin-4-yl]benzenesulfonamide] | 0.0466 µM | 0.0367 µM | 0.0364 µM |
| C[C@H]1[C@H](F)CN1c1nc2c(c(-c3cccc(S(N)(=O)=O)c3)n1)CCC2 [Example 210] | 0.0197 µM | 0.0176 µM | 0.0382 µM |
| C[C@H]1CCN1c1nc(-c2ccccc2)c2c(ncn2C)n1 [Example 211, 7-methyl-2-[(2S)-2-methylazetidin-1-yl]-6-phenyl-purine] | 4.76 µM | 7.31 µM | > 50 µM |

The remaining molecules from weak to strong by IC50 (human KHK-C), led by results:

| IC50 (human KHK-C) | IC50 (human KHK-A) | EC50 [1] | SMILES |
| --- | --- | --- | --- |
| 0.314 µM | 0.217 µM | 1.12 µM | C[C@H]1[C@H](O)CN1c1nc(-c2ccc(C(N)=O)cc2)c2c(n1)C(F)(F)CCC2 [Example 158] |
| 0.211 µM | 0.125 µM | 0.291 µM | C[C@H]1CCN1c1nc(-c2ccc(C(N)=O)cc2)c2c(n1)C(F)(F)CCC2 [Example 157, (S)-4-(8,8-difluoro-2-(2-methylazetidin-1-yl)-5,6,7,8-tetrahydroquinazolin-4-yl)benzamide] |
| 0.094 µM | 0.0636 µM | 0.2 µM | C[C@H]1CCN1c1nc2c(c(-c3cc4cc(C(N)=O)ccc4[nH]3)n1)CCC2 [Example 152, (S)-2-(2-(2-methylazetidin-1-yl)-6,7-dihydro-5H-cyclopenta[d]pyrimidin-4-yl)-1H-indole-5-carboxamide] |
| 0.0904 µM | 0.0458 µM | 0.034 µM | C[C@H]1CCN1c1nc2c(c(-c3cc4cccc(C(N)=O)c4[nH]3)n1)CCC2 [Example 154, (S)-2-(2-(2-methylazetidin-1-yl)-6,7-dihydro-5H-cyclopenta[d]pyrimidin-4-yl)-1H-indole-7-carboxamide] |
| 0.0666 µM | 0.186 µM | 4 µM | C[C@H]1CCN1c1nc2c(c(-c3cc4cc(C(=O)O)ccc4[nH]3)n1)CCC2 [Example 153, (S)-2-(2-(2-methylazetidin-1-yl)-6,7-dihydro-5H-cyclopenta[d]pyrimidin-4-yl)-1H-indole-5-carboxylic acid] |
| 0.0617 µM | 0.0816 µM | 0.112 µM | C[C@H]1CCN1c1nc2c(c(-c3ccc(S(N)(=O)=O)cc3)n1)CCC2 [Example 189, 4-[2-[(2S)-2-methylazetidin-1-yl]-6,7-dihydro-5H-cyclopenta[d]pyrimidin-4-yl]benzenesulfonamide] |
| 0.0408 µM | 0.0487 µM | 0.0281 µM | C[C@H]1CCN1c1nc2c(c(-c3cccc(C(C)(C)N)c3)n1)CCC2 [Example 190, 2-[3-[2-[(2S)-2-methylazetidin-1-yl]-6,7-dihydro-5H-cyclopenta[d]pyrimidin-4-yl]phenyl]propan-2-amine] |
| 0.0372 µM | 0.118 µM | 0.109 µM | C[C@H]1[C@H](O)CN1c1nc2c(c(-c3ccc4c(c3)C(=O)N(C)C4)n1)CCC2 [Example 204] |
| 0.0282 µM | 0.0232 µM | 0.0558 µM | C[C@H]1CCN1c1nc2c(c(-c3ccc4c(c3)C(=O)NC4)n1)CCC2 [Example 207] |
| 0.0224 µM | 0.0333 µM | 0.0916 µM | C[C@H]1CCN1c1nc2c(c(-c3ccc4c(c3)CNC4=O)n1)CCC2 [Example 187, 5-[2-[(2S)-2-methylazetidin-1-yl]-6,7-dihydro-5H-cyclopenta[d]pyrimidin-4-yl]isoindolin-1-one] |
| 0.0017 µM | 0.0029 µM | 0.13 µM | C[C@H]1[C@H](F)CN1c1nc2c(c(-c3ccc(CN)cc3)n1)CCC2 [Example 201, [4-[2-[(2S,3R)-3-fluoro-2-methyl-azetidin-1-yl]-6,7-dihydro-5H-cyclopenta[d]pyrimidin-4-yl]phenyl]methanamine] |
